The values that follow come from patent US8512971B2, “Compounds and methods of use thereof for assaying lysophospholipase D activity” (Echelon Biosciences, Inc., priority 2002, dated 2013).

Assay [1] has as its target T1, purified lysoPLD from human serum (Homo sapiens, UniProt Q13822).
T1 construct: The purified lysoPLD from human serum; host or cells: human serum (purified; values quoted from Tokumura et al., J. Biol. Chem. 277:39436-42, 2002)
The note with it: cited from earlier work.

In assay [2] the target is lysoPLD (Bos taurus, UniProt A1A4K5). To be noted: 25° C. The protocol: FIG. 9 illustrates the evaluation of the fluorogenic substrate FS-1 using fetal bovine serum which is known to be a rich source of LPA that is “self-regenerating” through the in situ activity of lysoPLD. (Umezu-Goto, et al., Journal of Cell Biology, 158:227-33. (2002)) A 10 mM stock solution of FS-1 in MeOH was added to 50 μL solutions of 1% or 10% FBS in PBS and incubated at 25° C. overnight. Measurements were taken on a Hewlett Packard Fusion instrument at 1, 3, 5, and 18 hours.

`CCCCCCCCCCCCCCCC(=O)OC[C@@H](O)COP(=O)([O-])OCC[N+](C)(C)C` [16:0 LPC]: in assay [1], the Km is 260 µM and the Vmax is recorded as 103 nmol/min.
For the compound “DABCYL-aminoethyl (N-BODIPY-FL®-aminocaproyl)-2-tert-buiylglycerylphosphate [FS-1]”, the “fluorescence change on cleavage of the quenched substrate” value in assay [2] (1% or 10% FBS in PBS, read at 1, 3, 5 and 18 hours, unoptimized assay) is listed as “increase in fluorescence with time”. Also, in assay [2] (FBS in PBS), the “substrate concentration of optimal conversion” value is 100 µM.

As usually defined, the Km is the concentration of substrate that gives half-maximal velocity. For orientation: Vmax means the rate approached at saturating substrate.
